Values of other authors in patent publication US20170325481A1, “METHOD OF FORMING ENCAPSULATED COMPOSITIONS WITH ENHANCED SOLUBILITY AND STABILITY” (KEMIN INDUSTRIES, INC., priority 2011, published 2017).

Details: multiple nanosize emulsions, 4 weeks of storage at 50° C.

Structure (SMILES): CC1=C(/C=C/C(C)=C/C=C/C(C)=C/C=C/C=C(C)/C=C/C=C(C)/C=C/C2=C(C)CCCC2(C)C)C(C)(C)CCC1 [β-carotene]
- β-carotene left after storage: 32.3%
